Experimental data from patent publication US12202829B2, “Heterocyclic compound” (FIMECS, Inc., priority 2018, dated 2025).
Where a name gives a salt, the structure may show the parent alone.

Target: T1, human XIAP_BIR3 domain purified protein (Homo sapiens, UniProt P98170)
T1 construct: purchased R & D
Test: XIAP binding inhibitory activity, HTRF method with b-Smac ligand
Conditions: second symbol of the cell; read-out: XIAP binding 50% inhibitory concentration (IC50 value)
Protocol: Human XIAP binding inhibitory activity were measured by the Homogeneous Time Resolved Fluorescence (HTRF) method with using commercially available human XIAP_BIR3 domain purified protein (R & D) and as a ligand a Smac N-terminal peptide (AVPIAQK (SEQ ID NO: 1)) (hereinafter referred to as “b-Smac”; Peptide Research Laboratories, Inc.) biotinylated at the C-terminus according to a conventional method.
The HTRF method will be described in detail below. A test compound diluted with a reaction buffer was added to a 384-well white shallow bottom plate (Greiner 784076) at 1 μL/well and flash centrifuged for 30 seconds. Subsequently, human XIAP_BIR3 domain purified protein was diluted with the reaction buffer (25 mM HEPES Buffer containing 100 mM NaCl, 0.1% BSA, and 0.1% triton X-100, pH 7.5) to obtain a 90 nM sample diluent, and the resultant sample diluent was added to the above-mentioned white superficial plate at 4.5 μL/well and flash centrifuged for 30 seconds. Subsequently, b-Smac diluted to 90 nM with the reaction buffer was added to the above-mentioned white superficial plat at 4.5 μL/well and flash centrifuged for 30 seconds. A mixed solution of Anti-6 HIS-Cryptate (Eu3+Cryptate-conjugated mouse monoclonal antibody anti-6 Histidine; cisbio) and Streptavidin-XL^ent! (Highgrade XL665-conjugated streptavidin; cisbio) both diluted 100-fold with HTRF detection buffer (cisbio) at a volume ratio of 1:1 was added to the above white superficial plate at 10 μL/well. After flash centrifuging the white shallow bottom plate for 30 seconds, the white shallow bottom plate was left at room temperature for 4 hours or more in the dark. The white superficial plate after being left was subjected to fluorescence intensity measurement (excitation wavelength: 320 nm, fluorescence wavelength: 665 nm and 615 nm) by EnVision (Perkin Elmer).
The binding inhibition rate (%) was calculated based on the HTRF ratio in the presence of the test compound to the HTRF ratio in the absence of the test compound (fluorescence intensity at 665 nm/fluorescence intensity at 615 nm).

T1 sequence (P98170 252-356 limits assumed): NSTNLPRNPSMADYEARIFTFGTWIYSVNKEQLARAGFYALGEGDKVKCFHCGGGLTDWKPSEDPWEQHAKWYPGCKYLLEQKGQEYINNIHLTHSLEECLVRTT

IC50 [µM]	SMILES
3 to 30	CN[C@@H](C)C(=O)N[C@@H](C(=O)N1CCN(C(=O)c2cc3cc(F)c(F)cc3n2CCOCCOCc2ccccc2)CC1)C1CCCCC1 [Example 46, (S)—N—((R)-2-(4-(1-(2-(2-(Benzyloxy)ethoxy)ethyl)-5,6-difluoro-1H-indole-2-carbonyl)piperazin-1-yl)-1-cyclohexyl-2-oxoethyl)-2-(methylamino)propanamide Hydrochloride]
3 to 30	CN[C@@H](C)C(=O)N[C@H](C(=O)N1CCN(C(=O)c2cc3cc(F)c(F)cc3n2CCOCCOCCO)CC1)C1CCCCC1 [Example 47, (S)—N—((S)-1-Cyclohexyl-2-(4-(5,6-difluoro-1-(2-(2-(2-hydroxyethoxy)ethoxy)ethyl)-1H-indole-2-carbonyl)piperazin-1-yl)-2-oxoethyl)-2-(methylamino)propanamide]
3 to 30	CN[C@@H](C)C(=O)N[C@H](C(=O)N1CCN(C(=O)c2cc3cc(F)c(F)cc3n2CCOCCOCCOCCO)CC1)C1CCCCC1 [Example 48, (S)—N—((S)-1-Cyclohexyl-2-(4-(5,6-difluoro-1-(2-(2-(2-(2-hydroxyethoxy)ethoxy)ethoxy)ethyl)-1H-indole-2-carbonyl)piperazin-1-yl)-2-oxoethyl)-2-(methylamino)propanamide]
3 to 30	CN[C@@H](C)C(=O)N[C@H](C(=O)N1CCN(C(=O)c2c(OCCOCCOCc3ccccc3)c3cc(F)c(F)cc3n2C)CC1)C1CCCCC1 [Example 49, (S)—N—((S)-2-(4-(3-(2-(2-(Benzyloxy)ethoxy)ethoxy)-5,6-difluoro-1-methyl-1H-indole-2-carbonyl)piperazin-1-yl)-1-cyclohexyl-2-oxoethyl)-2-(methylamino)propanamide]
3 to 30	CN[C@@H](C)C(=O)N[C@H](C(=O)N1CCN(C(=O)c2c(OCCOCCO)c3cc(F)c(F)cc3n2C)CC1)C1CCCCC1 [Example 50, (S)—N—((S)-1-Cyclohexyl-2-(4-(5,6-difluoro-3-(2-(2-hydroxyethoxy)ethoxy)-1-methyl-1H-indole-2-carbonyl)piperazin-1-yl)-2-oxoethyl)-2-(methylamino)propanamide]
3 to 30	CN[C@@H](C)C(=O)N[C@H](C(=O)N1CCN(C(=O)c2c(C)c3ccccc3n2CCOC)CC1)C1CCCCC1 [Example 51, (S)—N—((S)-1-Cyclohexyl-2-(4-(1-(2-methoxyethyl)-3-methyl-1H-indole-2-carbonyl)piperazin-1-yl)-2-oxoethyl)-2-(methylamino)propanamide]
3 to 30	CN[C@@H](C)C(=O)N[C@H](C(=O)N1CCN(C(=O)c2cc3cc(F)ccc3n2CCOC)CC1)C1CCCCC1 [Example 52, (S)—N—((S)-1-Cyclohexyl-2-(4-(5-fluoro-1-(2-methoxyethyl)-1H-indole-2-carbonyl)piperazin-1-yl)-2-oxoethyl)-2-(methylamino)propanamide]
3 to 30	CN[C@@H](C)C(=O)N[C@H](C(=O)N1CCN(C(=O)c2cc3ccc(F)cc3n2CCOC)CC1)C1CCCCC1 [Example 53, (S)—N—((S)-1-cyclohexyl-2-(4-(6-fluoro-1-(2-methoxyethyl)-1H-indole-2-carbonyl)piperazin-1-yl)-2-oxoethyl)-2-(methylamino)propanamide]
3 to 30	CN[C@@H](C)C(=O)N[C@H](C(=O)N1CCN(C(=O)c2cc3cc(F)c(F)cc3n2CCOC)CC1)C1CCCCC1 [Example 54, (S)—N—((S)-1-Cyclohexyl-2-(4-(5,6-difluoro-1-(2-methoxyethyl)-1H-indole-2-carbonyl)piperazin-1-yl)-2-oxoethyl)-2-(methylamino)propanamide]
3 to 30	CN[C@@H](C)C(=O)N[C@H](C(=O)N1CCN(C(=O)c2cc3cc(F)c(F)cc3n2C)C[C@H]1C)C1CCCCC1 [Example 56, (S)—N—((S)-1-Cyclohexyl-2-((R)-4-(5,6-difluoro-1-methyl-1H-indole-2-carbonyl)-2-methylpiperazin-1-yl)-2-oxoethyl)-2-(methylamino)propanamide Trifluoroacetate]
0.3 to 3	CN[C@@H](C)C(=O)N[C@H](C(=O)N1CCN(C(=O)c2cc3cc(F)c(OC)cc3n2C)C[C@H]1C)C1CCCCC1 [Example 57, (S)—N—[(S)-1-Cyclohexyl-2-[(R)-4-[(5-fluoro-6-methoxy-1-methyl-1H-indole-2carbonyl]-2-methylpiperazin-1-yl]-2-oxoethyl]-2-(methylamino)propanamide trifluoroacetate]
0.3 to 3	CN[C@@H](C)C(=O)N[C@H](C(=O)N1CCN(C(=O)c2cc3cc(F)ccc3n2C)C[C@H]1C)C1CCCCC1 [Example 58, (S)—N—((S)-1-Cyclohexyl-2-((R)-4-(5-fluoro-1-methyl-1H-indole-2-carbonyl)-2-methylpiperazin-1-yl)-2-oxoethyl)-2-(methylamino)propanamide Trifluoroacetate]
3 to 30	CN[C@@H](C)C(=O)N[C@H](C(=O)N1C[C@H]2CC[C@@H]1CN2C(=O)c1cc2cc(F)c(F)cc2n1C)C1CCCCC1 [Example 59, (2S)-N-((1S)-1-cyclohexyl-2-(5-((5,6-difluoro-1-methyl-1H-indol-2-yl)carbonyl)-2,5-diazabicyclo[2.2.2]octan-2-yl)-2-oxoethyl)-2-(methylamino)propanamide]
3 to 30	C[C@@H]1CN(CC(=O)N2CCN(C(=O)c3cc4cc(F)c(F)cc4n3C)C[C@H]2C)[C@@H](COCCOCCOCCO)CN1 [Example 64, 1-((R)-4-(5,6-Difluoro-1-methyl-1H-indole-2-carbonyl)-2-methylpiperazin-1-yl)-2-((2R,5R)-2-(2-(2-(2-hydroxyethoxy)ethoxy)ethoxymethyl)-5-methylpiperazin-1-yl)ethan-1-one]
3 to 30	C[C@@H]1CN(CC(=O)N2CCN(C(=O)c3cc4cc(F)c(F)cc4n3C)C[C@H]2C)[C@@H](COCCOCCOCCOCCO)CN1 [Example 65, 1-((R)-4-(5,6-Difluoro-1-methyl-1H-indole-2-carbonyl)-2-methylpiperazin-1-yl)-2-((2R,5R)-2-(13-hydroxy-2,5,8,11-tetraoxatridecyl)-5-methylpiperazin-1-yl)ethan-1-one]
3 to 30	CN[C@@H](C)C(=O)N[C@H](C(=O)N1CCN(C(=O)c2cc3c(OCCOCCOCCOCc4ccccc4)c(F)c(F)cc3n2C)CC1)C1CCCCC1 [Example 66, (S)—N—((S)-2-(4-(4-(2-(2-(2-(Benzyloxy)ethoxy)ethoxy)ethoxy)-5,6-difluoro-1-methyl-1H-indole-2-carbonyl)piperazin-1-yl)-1-cyclohexyl-2-oxoethyl)-2-(methylamino)propanamide]
0.3 to 3	CN[C@@H](C)C(=O)N[C@H](C(=O)N1CCN(C(=O)c2cc3c(OCCOCCOCCO)c(F)c(F)cc3n2C)CC1)C1CCCCC1 [Example 67, (S)—N—((S)-1-Cyclohexyl-2-(4-(5,6-difluoro-4-(2-(2-(2-hydroxyethoxy)ethoxy)ethoxy)-1-methyl-1H-indole-2-carbonyl)piperazin-1-yl)-2-oxoethyl)-2-(methylamino)propanamide]
0.3 to 3	CN[C@@H](C)C(=O)N[C@H](C(=O)N1CCN(C(=O)c2cc3c(OCCOCCOCCOCCO)c(F)c(F)cc3n2C)CC1)C1CCCCC1 [Example 68, (S)—N—((S)-1-Cyclohexyl-2-(4-(5,6-difluoro-4-(2-(2-(2-(2-hydroxyethoxy)ethoxy)ethoxy)ethoxy)-1-methyl-1H-indole-2-carbonyl)piperazin-1-yl)-2-oxoethyl)-2-(methylamino)propanamide]

SMILES	IC50 [µM]
CN[C@@H](C)C(=O)N[C@H](C(=O)N1C2CC1CN(C(=O)c1cc3cc(F)c(F)cc3n1C)C2)C1CCCCC1 [Example 60, (2S)-N-((1S)-1-cyclohexyl-2-(3-((5,6-difluoro-1-methyl-1H-indol-2-yl)carbonyl)-3,6-diazabicyclo[3.1.1]heptan-6-yl)-2-oxoethyl)-2 (methylamino)propanamide]	3 to 30

Same assay, conditions: test compound 3 μM; first symbol of the cell; read-out: XIAP binding inhibition rate when the concentration of the test compound is 3 μM

inhibition at 3 µM [%]	SMILES
> 75	CN[C@@H](C)C(=O)N[C@H](C(=O)N1CCN(C(=O)c2c(C(=O)NCCOCCOCCN=[N+]=[N-])c3ccc(OC)cc3n2C)CC1)C1CCCCC1 [Example 61, N-(2-(2-(2-Azidoethoxy)ethoxy)ethyl)-2-(4-((S)-2-cyclohexyl-2-((S)-2-(methylamino)propanamido)acetyl)piperazine-1-carbonyl)-6-methoxy-1-methyl-1H-indole-3-carboxamide]
25 to 50	CN[C@@H](C)C(=O)N[C@H](C(=O)N1CCN(C(=O)c2c(OCCOCCOCCOCCO)c3cc(F)c(F)cc3n2C)CC1)C1CCCCC1 [Example 63, (S)-N-((S)-1-cyclohexyl-2-(4-(5,6-difluoro-3-(2-(2-(2-(2-hydroxyethoxy)ethoxy)ethoxy)ethoxy)-1-methyl-1H-indole-2-carbonyl)piperazin-1-yl)-2-oxoethyl)-2-(methylamino)propanamide]
